Tested on: NIH3T3 cells
Assay: Flow cytometry of intracellular Ca2+ in control untransfected NIH3T3 cells
Assay type: cell-based, mouse
Settings: untransfected NIH3T3 cells loaded with indo-1

For `NCCc1c[nH]c2ccc(O)cc12` [serotonin, 5-hydroxytryptamine], the “Intracellular Ca2+ response to serotonin” value was “did not respond”.
